Data reported in patent publication US9023844B2, “Heterocyclylpyri (mi) dinylpyrazole as fungicidals” (Bayer Intellectual Property GmbH, priority 2011, dated 2015).
Like-named read-outs stand apart in the source and are kept apart here.

What was measured:
Puccinia recondita = test: Example E: Puccinia test (wheat) / preventive; type: in vivo
[1] = tested on: Fusarium nivale (var. majus); test: Example K: Fusarium nivale (var. majus) test (wheat) / preventive; type: in vivo; details: 500 ppm of active ingredient, preventive spray, evaluated 5 days after inoculation
Procedure: After the spray coating has been dried, the plants are slightly injured by using a sandblast and afterwards they are sprayed with a conidia suspension of Fusarium nivale (var. majus).
The test is evaluated 5 days after the inoculation.

[2] = tested on: DON/Acetyl-DON production by Fusarium graminearum; test: microbe, parasite or virus in culture; type: cell-based
Sphaerotheca fuliginea = test: Example A: Sphaerotheca test (cucumber) / preventive; type: in vivo
Pyricularia oryzae = type: in vivo
Pyrenophora teres = test: Example D: Pyrenophora test (barley) / preventive; type: in vivo
Leptosphaeria nodorum = test: Example C: Leptosphaeria test (wheat) / preventive; type: in vivo
[3] = Determination of log P values by HPLC on a reverse phase column (C18), EEC-Directive 79/831 Annex V.A8 (Methods A, B, C); type: physicochemical; details: for chromatographic logP: reverse phase C18 HPLC column
Procedure, shortened: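 Three C18 chromatographic methods following EEC-Directive 79/831 Annex V.A8 gave the logP values. Method C (UPLC, 2.1 mm column) ran at 40 °C and 0.8 mL/min with a 3.25 min 10–95% acetonitrile gradient. Methods A and B both ran at 55 °C and 2.0 mL/min, with gradients of 10–95% in 4.25 min and 5–95% in 1.70 min.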

Uromyces appendiculatus = test: Example B: Uromyces test (beans) / preventive; type: in vivo
Fusarium graminearum [4] = test: microbe, parasite or virus in culture; type: cell-based; details: for Growth inhibition of Fusarium graminearum in %: at 50 μM
Plasmopara viticola = test: Example H: Plasmopara test (grapevines) / preventive; type: in vivo
Fusarium graminearum [5] = type: in vivo
Venturia inaequalis = test: Example I: Venturia test (apples) / preventive; details: 100 ppm of active ingredient, preventive spray, evaluated 10 days after inoculation
Procedure: After the spray coating has dried on, the plants are inoculated with an aqueous conidia suspension of the causal agent of apple scab (Venturia inaequalis) and then remain for 1 day in an incubation cabinet at approximately 20° C. and a relative atmospheric humidity of 100%.
The plants are then placed in a greenhouse at approximately 21° C. and a relative atmospheric humidity of approximately 90%.
The test is evaluated 10 days after the inoculation.

Phytophthora infestans = type: in vivo
Septoria tritici = test: Example J: Septoria tritici test (wheat) / preventive; type: in vivo
[6] = 500 ppm of active ingredient, wheat, preventive spray, evaluated 7-9 days after inoculation
[7] = 500 ppm of active ingredient, cucumber, preventive spray, evaluated 7 days after inoculation
[8] = 500 ppm of active ingredient, rice, preventive spray, evaluated 7 days after inoculation
[9] = 500 ppm of active ingredient, barley, preventive spray, evaluated 7-9 days after inoculation
[10] = pH 2.7, values in the synthesis examples, HPLC, reverse phase C18, read-out: log P (pH 2.7)
[11] = 100 ppm of active ingredient, grapevines, preventive spray, evaluated 6 days after inoculation
[12] = 500 ppm of active ingredient, barley, preventive spray, evaluated 5 days after inoculation
[13] = 100 ppm of active ingredient, tomatoes, preventive spray, evaluated 3 days after inoculation
[14] = 500 ppm of active ingredient, wheat, preventive spray, evaluated 21 days after inoculation
[15] = Method A: HPLC, reverse phase C18, acetonitrile (0.1% formic acid)/water (0.09% formic acid) gradient
[16] = Method B (HPLC, reverse phase C18)
[17] = Method C (HPLC, reverse phase C18)

Row | Structure (SMILES) | efficacy [1] | efficacy (Venturia inaequalis) | efficacy (Puccinia recondita; in vivo) | Inhibition of DON/AcDON in % ([2]; at 50 μM) | efficacy (Sphaerotheca fuliginea; in vivo) | efficacy (Pyricularia oryzae; in vivo) | efficacy (Pyrenophora teres; in vivo) | efficacy (Leptosphaeria nodorum; in vivo) | efficacy (Uromyces appendiculatus; in vivo) | Growth inhibition of Fusarium graminearum in % (Fusarium graminearum [4]) | efficacy (Plasmopara viticola; in vivo) | efficacy (Fusarium graminearum [5]; in vivo) | efficacy (Phytophthora infestans; in vivo) | efficacy (Septoria tritici; in vivo) | LogP [3, 16] | other results
1 | O=C(Nc1cc(-c2c(-c3ccc(F)cc3)nn3c2OCCC3)ccn1)C1CC1 [Example 4, N-{4-[2-(4-fluorophenyl)-6,7-dihydro-5H-pyrazolo[5,1-b][1,3]oxazin-3-yl]pyridin-2-yl}cyclo-propanecarboxamide] | 100% | 95% |  |  |  |  |  |  |  |  |  |  |  |  |  | efficacy (Puccinia recondita; [6]): 100%; inhibition at 50 µM ([2]; Fusarium graminearum, at 50 μM, read-out: Inhibition of DON/AcDON in %): 99%; efficacy (Sphaerotheca fuliginea; [7]): 100%; efficacy (Pyricularia oryzae; [8]): 100%; efficacy (Pyrenophora teres; [9]): 100%; efficacy (Leptosphaeria nodorum; [6]): 90%; chromatographic logP ([3]; Method B (HPLC, reverse phase C18), read-out: LogP): 1.47; chromatographic logP [3, 10]: 1.39; efficacy (Uromyces appendiculatus; 500 ppm of active ingredient, beans, preventive spray, evaluated 6-8 days after inoculation): 90%; inhibition at 50 µM (Fusarium graminearum [4]; Fusarium graminearum, read-out: Growth inhibition of Fusarium graminearum in %): 69%; efficacy (Plasmopara viticola; [11]): 100%; efficacy (Fusarium graminearum [5]; [12]): 100%; efficacy (Phytophthora infestans; [13]): 94%; efficacy (Septoria tritici; [14]): 80%
2 | CCC(=O)Nc1cc(-c2c(-c3ccc(F)cc3)nn3c2OCCC3)ccn1 [Example 5] | 100% | 98% | 100% | 100% | 95% | 100% | 95% | 90% | 93% | 62% | 100% | 100% | 95% | 92% |  | LogP [3, 15]: 1.46
3 | CCC(=O)Nc1cc(-c2c(-c3ccccc3)nn3c2OCCC3)ccn1 [Example 6] | 100% | 100% | 100% |  | 98% | 94% | 95% | 90% | 89% |  | 94% | 100% | 96% | 100% | 1.16 | 
4 | CC(C)C(=O)Nc1cc(-c2c(-c3ccccc3)nn3c2OCCC3)ccn1 [Example 8] | 93% | 98% | 100% |  | 100% | 94% | 95% | 95% | 94% |  | 100% | 100% | 95% | 80% | 1.39 | 
5 | CCOC(=O)Nc1cc(-c2c(-c3ccccc3)nn3c2OCCC3)ccn1 [Example 9] | 93% | 100% | 100% | 100% | 95% | 94% | 100% | 95% | 94% | 100% | 94% | 100% | 95% | 80% | 1.51 | 
6 | O=C(CC(F)(F)F)Nc1cc(-c2c(-c3ccccc3)nn3c2OCCC3)ccn1 [Example 17] | 100% | 100% | 100% |  |  | 94% | 95% |  | 94% |  | 100% |  | 95% |  | 1.98 | 
7 | CC(C)CC(=O)Nc1cc(-c2c(-c3ccc(F)cc3)nn3c2OCCC3)ccn1 [Example 25] | 100% | 100% | 100% |  | 100% | 100% | 100% | 95% | 94% |  | 98% | 100% | 93% | 80% | 1.82 | 
8 | CCC(=O)Nc1cc(-c2c(-c3ccc(F)cc3F)nn3c2OCCC3)ccn1 [Example 35] | 100% | 100% | 100% | 99% |  | 94% | 95% | 80% | 92% | 100% | 95% | 100% | 99% | 100% | 1.34 | 
9 | CC(C)C(=O)Nc1cc(-c2c(-c3ccc(F)cc3F)nn3c2OCCC3)ccn1 [Example 37] | 100% | 100% | 100% |  | 100% | 94% | 95% | 70% | 94% |  | 100% | 100% | 95% | 88% | 1.6 | 
10 | CCC(=O)N(C(C)=O)c1cc(-c2c(-c3ccc(F)cc3)nn3c2OCCC3)ccn1 [Example 52] | 100% | 98% | 95% |  | 95% | 95% | 95% | 80% |  |  | 84% | 100% | 95% | 100% |  | LogP [3, 15]: 2.4
11 | CCC(=O)N(C(=O)C1CC1)c1cc(-c2c(-c3ccc(F)cc3)nn3c2OCCC3)ccn1 [Example 54] | 100% | 95% | 95% |  | 100% | 90% | 95% | 80% |  |  | 100% | 100% | 99% | 100% |  | LogP [3, 15]: 2.77
12 | CC(C)C(=O)Nc1cc(-c2c(-c3ccc(F)cc3)nn3c2OCCC3C)ccn1 (stereo not shown) [Example 62] | 100% | 100% | 90% | 99% | 100% | 95% | 95% |  | 78% | 86% | 100% | 100% | 95% | 75% |  | LogP [3, 15]: 1.86
13 | CCC(=O)Nc1cc(-c2c(-c3ccc(F)cc3)nn3c2OCCC3C)ccn1 (stereo not shown) [Example 63, N-{4-[2-(4-fluorophenyl)-7-methyl-6,7-dihydro-5H-pyrazolo[5,1-b][1,3]oxazin-3-yl]pyridin-2-yl}propanamide] | 100% | 100% |  |  |  |  |  |  |  |  |  |  |  |  |  | efficacy (Puccinia recondita; [6]): 80%; efficacy (Sphaerotheca fuliginea; [7]): 95%; efficacy (Pyricularia oryzae; [8]): 95%; efficacy (Pyrenophora teres; [9]): 100%; chromatographic logP ([3]; Method A: HPLC, reverse phase C18, acetonitrile (0.1% formic acid)/water (0.09% formic acid) gradient, read-out: LogP): 1.61; chromatographic logP [3, 10]: 1.61; efficacy (Plasmopara viticola; [11]): 95%; efficacy (Fusarium graminearum [5]; [12]): 88%; efficacy (Phytophthora infestans; [13]): 95%; efficacy (Septoria tritici; [14]): 94%
14 | CCC(=O)Nc1cc(-c2c(-c3cccs3)nn3c2OC[Si](C)(C)C3)ccn1 [Example 82] |  | 94% | 70% | 100% |  | 70% | 95% |  |  | 100% | 100% |  | 85% |  |  | LogP [3, 17]: 1.81
15 | CC(=O)Nc1cc(-c2c(-c3cccs3)nn3c2OC[Si](C)(C)C3)ccn1 [Example 85] | 100% | 97% | 78% |  |  | 90% | 95% | 90% |  |  | 97% | 71% | 95% | 86% |  | Inhibition of DON/AcDON in % ([2]; 50 µM): 99%; LogP [3, 17]: 1.74
16 | CC(C)C(=O)Nc1cc(-c2c(-c3cccs3)nn3c2OC[Si](C)(C)C3)ccn1 [Example 86] |  | 100% | 95% | 99% |  | 80% | 90% |  | 94% | 100% | 100% |  | 98% |  |  | LogP [3, 17]: 2.28
